# Assay results from ChEMBL document CHEMBL1681769, “Tetrahydroquinolin-3-yl carbamate glucocorticoid receptor agonists with reduced PEPCK activation” (Bioorg Med Chem Lett, 2011).
# What was measured:
# Glucocorticoid receptor [1] = target: T1, Glucocorticoid receptor (Homo sapiens, UniProt P04150)
# T1 sequence (P04150 whole entry): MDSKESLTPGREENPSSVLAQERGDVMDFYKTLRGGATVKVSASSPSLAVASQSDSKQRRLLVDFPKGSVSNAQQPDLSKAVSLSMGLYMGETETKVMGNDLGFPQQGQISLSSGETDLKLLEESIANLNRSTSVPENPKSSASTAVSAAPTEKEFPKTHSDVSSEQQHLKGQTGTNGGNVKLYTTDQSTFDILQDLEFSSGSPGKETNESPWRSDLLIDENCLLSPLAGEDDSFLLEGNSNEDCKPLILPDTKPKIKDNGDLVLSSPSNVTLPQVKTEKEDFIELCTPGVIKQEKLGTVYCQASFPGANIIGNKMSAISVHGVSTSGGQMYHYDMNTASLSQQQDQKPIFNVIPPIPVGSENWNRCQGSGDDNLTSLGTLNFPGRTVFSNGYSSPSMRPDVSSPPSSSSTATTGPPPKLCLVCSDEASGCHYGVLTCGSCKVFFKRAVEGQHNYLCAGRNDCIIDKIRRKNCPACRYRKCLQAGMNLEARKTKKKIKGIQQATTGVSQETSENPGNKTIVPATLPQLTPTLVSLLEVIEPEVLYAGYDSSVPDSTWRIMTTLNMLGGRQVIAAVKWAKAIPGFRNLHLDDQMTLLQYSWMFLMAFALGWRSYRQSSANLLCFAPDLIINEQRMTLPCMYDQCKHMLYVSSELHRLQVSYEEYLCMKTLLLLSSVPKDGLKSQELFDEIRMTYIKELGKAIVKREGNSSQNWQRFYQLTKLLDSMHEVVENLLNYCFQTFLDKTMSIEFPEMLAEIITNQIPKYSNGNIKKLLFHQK
# Description: Displacement of radiolabeled Dexamethasone from GR
# Glucocorticoid receptor [2] = target: T1, Glucocorticoid receptor; type: functional, cell-based, CV-1
# Description: Agonist activity at GR expressed in african green monkey CV1 cells transfected with luciferase gene linked to MMTV promoter assessed as induction of luciferase transactivation activity
# Glucocorticoid receptor [3] = target: T1, Glucocorticoid receptor; type: cell-based, HepG2
# Description: Transrepression activity at GR expressed in IL-1beta- and TNFalpha-stimulated HepG2 cells assessed as inhibition of NFKB- or AP-1 mediated E-selectin transcription by luciferase reporter gene assay
# Glucocorticoid receptor [4] = target: T1, Glucocorticoid receptor; type: cell-based, NHDF
# Description: Transrepression activity at GR expressed in NHDF cells assessed as IL-1beta-mediated IL-6 transcription by ELISA
# Glucocorticoid receptor [5] = target: T1, Glucocorticoid receptor; type: functional, cell-based, H4IIEC3
# Description: Agonist activity at GR expressed in rat H4IIEC3 cells assessed as induction of PEPCK transactivation by luciferase reporter gene assay
# Progesterone receptor = target: T2, Progesterone receptor (Homo sapiens, UniProt P06401); experiment: Binding affinity to progesterone receptor
# T2 sequence (P06401 whole entry): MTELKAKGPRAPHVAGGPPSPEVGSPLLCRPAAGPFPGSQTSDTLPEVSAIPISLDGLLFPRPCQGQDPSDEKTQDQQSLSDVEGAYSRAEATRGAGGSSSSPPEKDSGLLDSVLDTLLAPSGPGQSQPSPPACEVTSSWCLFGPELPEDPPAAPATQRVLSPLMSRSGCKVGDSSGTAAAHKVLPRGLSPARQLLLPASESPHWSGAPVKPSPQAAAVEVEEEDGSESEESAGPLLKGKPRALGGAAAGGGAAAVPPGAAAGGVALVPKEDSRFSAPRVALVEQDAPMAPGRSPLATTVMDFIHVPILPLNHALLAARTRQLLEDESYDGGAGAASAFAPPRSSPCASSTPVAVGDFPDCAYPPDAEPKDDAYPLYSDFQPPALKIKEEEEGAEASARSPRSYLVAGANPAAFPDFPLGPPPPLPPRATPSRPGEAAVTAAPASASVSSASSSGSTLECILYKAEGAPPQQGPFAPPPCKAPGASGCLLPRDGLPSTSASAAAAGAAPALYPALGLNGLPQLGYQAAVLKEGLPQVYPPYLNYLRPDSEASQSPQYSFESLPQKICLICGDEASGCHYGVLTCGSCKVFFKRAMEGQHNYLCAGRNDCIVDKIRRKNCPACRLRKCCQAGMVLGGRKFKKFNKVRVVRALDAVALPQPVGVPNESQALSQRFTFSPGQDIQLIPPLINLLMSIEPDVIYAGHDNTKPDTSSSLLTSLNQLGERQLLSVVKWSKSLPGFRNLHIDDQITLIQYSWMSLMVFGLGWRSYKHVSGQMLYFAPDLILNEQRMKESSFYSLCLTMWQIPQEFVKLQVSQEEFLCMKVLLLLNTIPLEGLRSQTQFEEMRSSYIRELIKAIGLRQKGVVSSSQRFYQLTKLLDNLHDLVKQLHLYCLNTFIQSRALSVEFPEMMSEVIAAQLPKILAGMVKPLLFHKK
# [6] = target: T3, Mineralocorticoid receptor (Homo sapiens, UniProt P08235); experiment: Binding affinity to mineralocorticoid receptor
# T3 sequence (P08235 whole entry): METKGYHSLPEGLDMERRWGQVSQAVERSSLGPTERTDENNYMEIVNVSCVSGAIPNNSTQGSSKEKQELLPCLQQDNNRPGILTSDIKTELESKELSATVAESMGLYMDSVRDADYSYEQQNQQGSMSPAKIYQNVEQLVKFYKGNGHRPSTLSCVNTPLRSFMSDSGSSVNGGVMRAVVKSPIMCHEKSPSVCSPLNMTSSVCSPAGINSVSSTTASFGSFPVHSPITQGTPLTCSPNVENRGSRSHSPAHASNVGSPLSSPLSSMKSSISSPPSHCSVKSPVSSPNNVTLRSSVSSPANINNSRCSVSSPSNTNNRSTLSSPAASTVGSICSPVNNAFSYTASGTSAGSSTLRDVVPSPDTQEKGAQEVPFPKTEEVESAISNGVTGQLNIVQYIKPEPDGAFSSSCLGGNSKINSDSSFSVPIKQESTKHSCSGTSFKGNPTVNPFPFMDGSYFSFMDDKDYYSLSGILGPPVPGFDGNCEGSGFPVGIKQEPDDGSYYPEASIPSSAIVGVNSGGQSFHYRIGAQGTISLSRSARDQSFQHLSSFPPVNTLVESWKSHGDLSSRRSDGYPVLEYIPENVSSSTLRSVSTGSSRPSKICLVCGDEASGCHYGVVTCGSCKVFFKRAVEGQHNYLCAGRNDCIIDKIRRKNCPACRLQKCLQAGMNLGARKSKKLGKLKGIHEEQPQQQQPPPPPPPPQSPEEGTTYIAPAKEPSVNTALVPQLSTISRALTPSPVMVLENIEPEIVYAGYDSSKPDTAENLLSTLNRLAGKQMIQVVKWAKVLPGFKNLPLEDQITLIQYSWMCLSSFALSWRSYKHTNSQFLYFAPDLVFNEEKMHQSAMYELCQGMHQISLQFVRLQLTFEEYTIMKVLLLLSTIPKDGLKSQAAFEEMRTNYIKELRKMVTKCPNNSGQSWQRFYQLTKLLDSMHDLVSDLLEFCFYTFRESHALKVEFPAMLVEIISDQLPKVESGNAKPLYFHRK
SMILES,Ki (Glucocorticoid receptor [1]) [µM],EC50 (Glucocorticoid receptor [2]) [µM],IC50 (Glucocorticoid receptor [3]) [µM],IC50 (Glucocorticoid receptor [4]) [µM],EC50 (Glucocorticoid receptor [5]) [µM],Ki (Progesterone receptor) [µM],Ki [6] [µM]
C[C@H]1c2c(cc(F)c(-c3cccc4c(Cl)c[nH]c34)c2F)NC(C)(C)[C@@H]1OC(=O)Nc1ccccc1,0.0076,0.0076,0.0091,0.033,0.379,–,–
COc1ccc(NC(=O)O[C@@H]2[C@@H](C)c3c(cc(F)c(-c4cccc5cc[nH]c45)c3F)NC2(C)C)cc1Cl,0.0116,0.011,0.0075,0.031,0.687,–,–
C[C@H]1c2c(cc(F)c(-c3cccc4cc[nH]c34)c2F)NC(C)(C)[C@@H]1OC(=O)Nc1ccc2c(c1)OCO2,0.0122,0.018,0.0085,0.05,0.874,–,–
C[C@H]1c2c(cc(F)c(-c3cccc4cc[nH]c34)c2F)NC(C)(C)[C@@H]1OC(=O)Nc1ccc(C#N)cc1,0.0161,0.021,0.01,0.016,–,–,–
C[C@H]1c2c(cc(F)c(-c3cccc4c(Cl)c[nH]c34)c2F)NC(C)(C)[C@@H]1OC(=O)Nc1ccc(C#N)cc1,0.0137,0.0051,0.0081,0.005,0.272,–,–
C[C@H]1c2c(cc(F)c(-c3cccc4cc[nH]c34)c2F)NC(C)(C)[C@@H]1O (racemic),–,–,–,–,0.098,–,–
CNC(=O)O[C@@H]1[C@@H](C)c2c(cc(F)c(-c3cccc4c(Cl)c[nH]c34)c2F)NC1(C)C (racemic),0.0022,0.021,0.012,0.052,0.463,–,–
C[C@H]1c2c(cc(F)c(-c3cccc4cc[nH]c34)c2F)NC(C)(C)[C@@H]1OC(=O)N1CCCCC1 (racemic),0.132,> 1,> 1,–,–,–,–
C[C@H]1c2c(cc(F)c(-c3cccc4cc[nH]c34)c2F)NC(C)(C)[C@@H]1OC(=O)Nc1cccc(C#N)c1 (racemic),0.0137,0.024,0.013,0.038,0.287,0.662,1.47

# Now from value to molecule:
Ki (Glucocorticoid receptor [1]) [µM],EC50 (Glucocorticoid receptor [2]) [µM],IC50 (Glucocorticoid receptor [3]) [µM],IC50 (Glucocorticoid receptor [4]) [µM],EC50 (Glucocorticoid receptor [5]) [µM],Ki (Progesterone receptor) [µM],Ki [6] [µM],SMILES
0.0062,0.105,0.04,> 1,–,–,–,C[C@H]1c2c(cc(F)c(-c3cccc4cc[nH]c34)c2F)NC(C)(C)[C@@H]1OC(=O)Nc1ccccc1
0.0143,> 1,> 1,> 1,–,–,–,C[C@H]1c2c(cc(F)c(-c3cccc4cc[nH]c34)c2F)NC(C)(C)[C@@H]1OC(=O)N(C)c1ccccc1
0.0067,0.0058,0.0057,0.012,0.283,–,–,COc1ccc(NC(=O)O[C@@H]2[C@@H](C)c3c(cc(F)c(-c4cccc5c(Cl)c[nH]c45)c3F)NC2(C)C)cc1Cl
0.07,0.178,0.044,0.029,–,–,–,C[C@H]1c2c(cc(F)c(-c3cccc4cc[nH]c34)c2F)NC(C)(C)[C@@H]1OC(=O)Nc1ccc(Cl)cc1
0.03,0.015,0.029,0.016,0.267,–,–,COC(=O)c1ccc(NC(=O)O[C@@H]2[C@@H](C)c3c(cc(F)c(-c4cccc5cc[nH]c45)c3F)NC2(C)C)cc1
0.0051,0.0035,0.0084,0.039,0.361,–,–,C[C@H]1c2c(cc(F)c(-c3cccc4cc[nH]c34)c2F)NC(C)(C)[C@@H]1OC(=O)Nc1ccc(N(C)C)cc1
0.003,0.039,0.01,> 1,0.199,–,–,CNC(=O)O[C@@H]1[C@@H](C)c2c(cc(F)c(-c3cccc4cc[nH]c34)c2F)NC1(C)C (racemic)
0.0068,0.017,0.044,0.04,0.454,0.16,0.656,C[C@H]1c2c(cc(F)c(-c3cccc4c(Cl)c[nH]c34)c2F)NC(C)(C)[C@@H]1OC(=O)NCc1ccccc1 (racemic)
0.0078,0.089,0.045,0.017,0.361,0.213,0.378,CC(C)NC(=O)O[C@@H]1[C@@H](C)c2c(cc(F)c(-c3cccc4c(Cl)c[nH]c34)c2F)NC1(C)C (racemic)
0.0043,0.07,0.015,0.023,0.435,0.093,2.25,C[C@H]1c2c(cc(F)c(-c3cccc4c(Cl)c[nH]c34)c2F)NC(C)(C)[C@@H]1OC(=O)NC1CCCCC1 (racemic)
0.0029,0.016,0.023,0.031,0.182,0.231,1.11,CC(=O)c1ccc(NC(=O)O[C@@H]2[C@@H](C)c3c(cc(F)c(-c4cccc5cc[nH]c45)c3F)NC2(C)C)cc1 (racemic)
0.0094,0.029,0.049,0.022,0.333,0.68,3.17,CC(=O)c1cccc(NC(=O)O[C@@H]2[C@@H](C)c3c(cc(F)c(-c4cccc5cc[nH]c45)c3F)NC2(C)C)c1 (racemic)
